Tests used:
Format in all cases: biochemical
[1] = molecular target: T1, AKT1 (Homo sapiens, UniProt P31749); assay: 26-kinase panel mobility shift assay, single concentration; details: read-out: % Inhibition AKT1
T1 construct: purchased Perkin Elmer ProfilerPro assay kit 1
Experimental: Mobility Shift Assay Protocol
(§1) Screening of 26 kinases using a mobility shift assay
(§2) A mobility shift assay to determine kinase inhibition was carried out using a
(§3) modified version of the ProfilerPro assay kit 1 (Perkin Elmer, Coventry, UK)
(§4) including MPS1 and Aurora B. Each kit contained an enzyme plate, a substrate
(§5) plate, reconstitution buffer, 1 M DTT, protease inhibitor cocktail and termination
(§6) buffer. Test compounds were added as a solution in DMSO.
(§7) peptide phosphorylation assay was carried out as per the manufacturer’s
(§8) instructions. The electrophoretic separation and analysis of the phosphorylated
(§9) and non-phosphorylated peptides was carried out on a 4-sipper chip using a
(§10) LabChip EZReader II (Perkin Elmer). Results were expressed as % inhibition of
(§11) peptide phosphorylation relative to control wells for 0 % (no test compound) and
(§12) 100 % (no ATP) inhibition. The percentage inhibition was calculated using the
(§13) % Inhibition = [1 - (% Conversion Sample / % Conversion 0% Inhibition Control)] x 100

[2] = molecular target: T2, Erk1 (Homo sapiens, UniProt P27361); assay: as above; details: read-out: % Inhibition Erk1
T2 construct: purchased Perkin Elmer (ProfilerPro assay kit 1)
Experimental: as §2, §3, §4, §5, §6, §7, §8, §9, §10, §11, §12, §13

[3] = molecular target: T3, CK1d (Homo sapiens, UniProt P48730); assay: as above; details: read-out: % Inhibition CK1d
T3 construct: purchased Perkin Elmer (ProfilerPro assay kit 1)
T3 sequence (P48730 whole entry): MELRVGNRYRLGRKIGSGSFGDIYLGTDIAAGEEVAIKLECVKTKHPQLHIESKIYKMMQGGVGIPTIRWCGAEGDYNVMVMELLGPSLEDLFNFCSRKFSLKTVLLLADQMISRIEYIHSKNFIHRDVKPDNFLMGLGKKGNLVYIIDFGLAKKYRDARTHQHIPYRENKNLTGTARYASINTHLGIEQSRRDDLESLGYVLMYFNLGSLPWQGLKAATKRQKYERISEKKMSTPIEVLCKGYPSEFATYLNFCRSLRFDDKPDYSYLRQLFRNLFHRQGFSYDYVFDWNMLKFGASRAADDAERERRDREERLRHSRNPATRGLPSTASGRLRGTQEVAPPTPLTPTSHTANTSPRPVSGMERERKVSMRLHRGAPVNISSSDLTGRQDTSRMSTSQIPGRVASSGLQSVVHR
Experimental: as §2, §3, §4, §5, §6, §7, §8, §9, §10, §11, §12, §13

[4] = molecular target: Aurora B (Homo sapiens, UniProt Q96GD4); details: for Ki: calculated from mean IC50 using the Cheng-Prusoff equation, read-out: AurB Ki; for AurB ligand efficiency (LE): from Ki;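 for all read-outs here: aurora B inhibition measured in a mobility shift assay, underlying mean IC50 taken from two independent duplicate runs at 8 compound concentrations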
Aurora B, sequence (Q96GD4 whole entry): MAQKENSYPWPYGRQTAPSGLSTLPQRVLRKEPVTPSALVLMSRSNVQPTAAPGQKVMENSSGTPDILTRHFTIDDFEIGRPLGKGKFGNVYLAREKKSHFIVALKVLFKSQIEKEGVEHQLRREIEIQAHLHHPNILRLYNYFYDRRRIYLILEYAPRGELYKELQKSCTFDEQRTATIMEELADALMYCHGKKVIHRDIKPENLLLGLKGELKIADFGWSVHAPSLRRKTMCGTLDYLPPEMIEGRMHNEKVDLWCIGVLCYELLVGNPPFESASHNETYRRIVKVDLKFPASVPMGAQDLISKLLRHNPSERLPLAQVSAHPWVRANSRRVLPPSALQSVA
Experimental: IC50 values were obtained for an expanded version of the fragment library using the previously described mobility shift assay.[44] Subsequently, Ki values were estimated from IC50 values to allow better comparison of the activity against targets which were measured at different substrate concentrations (Supplementary data Table 1).
IC50 values for MPS1, Aurora A and Aurora B inhibition were determined as previously described,[44] and Ki values were estimated from the mean IC50 values using the Cheng-Prusoff equation.[48]
Kinase [ATP] (M) [Enzyme] (nM) [Peptide Substrate] (M) MgCl2 (mM)
For all compounds, IC50 values for MPS1, Aurora A, and Aurora B were determined
using MPS1 and Aurora A/B mobility shift assays as described previously.1 IC50
values were calculated from a four-parameter logistic fit of percentage inhibition
versus concentration (at 8 compound concentrations) using GraphPad Prism 5
(GraphPad Software, Inc., CA, USA). Mean IC50 values were determined from two
independent measurements each carried out in duplicate. Ki values were estimated
from the mean IC50 values using the Cheng-Prusoff equation.

[5] = molecular target: T4, LYN (Homo sapiens, UniProt P07948); assay: 26-kinase panel mobility shift assay, single concentration; details: read-out: % Inhibition LYN
T4 construct: purchased Perkin Elmer (ProfilerPro assay kit 1)
T4 sequence (P07948 whole entry): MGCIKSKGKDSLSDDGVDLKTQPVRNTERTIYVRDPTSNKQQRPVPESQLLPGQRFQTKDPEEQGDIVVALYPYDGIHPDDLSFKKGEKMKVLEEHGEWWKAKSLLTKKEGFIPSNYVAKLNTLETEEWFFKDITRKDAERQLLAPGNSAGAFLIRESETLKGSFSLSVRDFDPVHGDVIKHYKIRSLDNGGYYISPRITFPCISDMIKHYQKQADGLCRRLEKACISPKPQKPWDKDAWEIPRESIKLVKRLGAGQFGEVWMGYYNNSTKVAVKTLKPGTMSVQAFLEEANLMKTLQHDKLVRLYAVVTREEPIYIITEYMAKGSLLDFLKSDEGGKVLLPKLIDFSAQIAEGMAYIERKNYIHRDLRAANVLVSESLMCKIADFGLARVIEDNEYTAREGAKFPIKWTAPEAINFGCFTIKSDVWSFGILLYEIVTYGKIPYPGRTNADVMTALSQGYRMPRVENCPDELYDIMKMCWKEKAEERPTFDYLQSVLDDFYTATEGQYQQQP
Experimental: as §2, §3, §4, §5, §6, §7, §8, §9, §10, §11, §12, §13

[6] = molecular target: T5, PKCζ (Homo sapiens, UniProt Q05513); assay: as above; details: read-out: % Inhibition PKC
T5 construct: purchased Perkin Elmer (ProfilerPro assay kit 1)
T5 sequence (Q05513 1-592): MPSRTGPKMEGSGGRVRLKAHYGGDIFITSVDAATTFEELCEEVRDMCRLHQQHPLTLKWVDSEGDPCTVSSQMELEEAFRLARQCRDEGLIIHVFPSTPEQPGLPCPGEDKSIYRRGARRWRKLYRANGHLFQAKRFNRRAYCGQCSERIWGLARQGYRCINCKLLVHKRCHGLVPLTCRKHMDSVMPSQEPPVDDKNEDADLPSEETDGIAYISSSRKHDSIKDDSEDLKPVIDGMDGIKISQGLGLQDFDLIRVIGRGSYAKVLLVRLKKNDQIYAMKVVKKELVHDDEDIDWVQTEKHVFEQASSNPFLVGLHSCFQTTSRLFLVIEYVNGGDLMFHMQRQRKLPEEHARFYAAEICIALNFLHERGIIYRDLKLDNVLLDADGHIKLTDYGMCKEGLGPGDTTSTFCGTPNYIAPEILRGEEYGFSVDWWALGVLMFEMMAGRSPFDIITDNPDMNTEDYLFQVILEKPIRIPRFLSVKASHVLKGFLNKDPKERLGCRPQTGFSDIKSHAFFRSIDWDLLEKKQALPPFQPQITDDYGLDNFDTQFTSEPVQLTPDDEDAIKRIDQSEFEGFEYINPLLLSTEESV
Experimental: (§14) In order to test the biochemical activity of our fragment library, a panel of 26 structurally diverse protein kinases was used.
Mobility Shift Assay Protocol
as §1, §2, §3, §4, §5, §6
final concentration. […] The
as §7, §8, §9, §10, §11, §12, §13

[7] = molecular target: T6, PKD2 (Homo sapiens, UniProt Q9BZL6); assay: as above; details: read-out: % Inhibition PKD2
T6 construct: purchased Perkin Elmer (ProfilerPro assay kit 1)
T6 sequence (Q9BZL6 1-878): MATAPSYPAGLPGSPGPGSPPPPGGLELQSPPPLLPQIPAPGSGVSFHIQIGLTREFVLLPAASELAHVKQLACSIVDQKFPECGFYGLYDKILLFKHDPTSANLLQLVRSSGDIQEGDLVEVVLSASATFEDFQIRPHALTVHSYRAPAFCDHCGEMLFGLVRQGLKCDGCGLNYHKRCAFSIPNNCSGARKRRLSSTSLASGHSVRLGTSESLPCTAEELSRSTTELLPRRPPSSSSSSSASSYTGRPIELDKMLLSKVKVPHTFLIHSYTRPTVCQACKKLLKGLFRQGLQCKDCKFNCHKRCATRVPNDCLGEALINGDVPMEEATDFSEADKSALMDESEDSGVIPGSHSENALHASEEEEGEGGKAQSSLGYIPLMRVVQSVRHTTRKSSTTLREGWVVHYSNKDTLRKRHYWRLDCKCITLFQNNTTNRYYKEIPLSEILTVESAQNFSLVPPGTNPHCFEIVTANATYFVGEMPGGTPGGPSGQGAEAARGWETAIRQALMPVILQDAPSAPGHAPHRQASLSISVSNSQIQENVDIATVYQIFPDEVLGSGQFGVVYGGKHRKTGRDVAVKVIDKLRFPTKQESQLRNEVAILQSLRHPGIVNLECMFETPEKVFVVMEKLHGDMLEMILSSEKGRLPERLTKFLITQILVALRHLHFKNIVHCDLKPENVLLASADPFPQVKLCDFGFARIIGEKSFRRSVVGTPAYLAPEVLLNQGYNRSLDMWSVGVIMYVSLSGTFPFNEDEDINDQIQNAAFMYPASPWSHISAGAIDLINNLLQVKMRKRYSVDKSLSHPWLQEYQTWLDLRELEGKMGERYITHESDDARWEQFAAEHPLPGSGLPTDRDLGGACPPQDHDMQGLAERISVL
Experimental: as §14, §1, §2, §3, §4, §5, §6, §7, §8, §9, §10, §11, §12, §13

[8] = molecular target: T7, AurA (Homo sapiens, UniProt O14965); assay: as above; details: read-out: % Inhibition AurA
T7 construct: purchased Perkin Elmer (ProfilerPro assay kit 1)
T7 sequence (O14965 1-403): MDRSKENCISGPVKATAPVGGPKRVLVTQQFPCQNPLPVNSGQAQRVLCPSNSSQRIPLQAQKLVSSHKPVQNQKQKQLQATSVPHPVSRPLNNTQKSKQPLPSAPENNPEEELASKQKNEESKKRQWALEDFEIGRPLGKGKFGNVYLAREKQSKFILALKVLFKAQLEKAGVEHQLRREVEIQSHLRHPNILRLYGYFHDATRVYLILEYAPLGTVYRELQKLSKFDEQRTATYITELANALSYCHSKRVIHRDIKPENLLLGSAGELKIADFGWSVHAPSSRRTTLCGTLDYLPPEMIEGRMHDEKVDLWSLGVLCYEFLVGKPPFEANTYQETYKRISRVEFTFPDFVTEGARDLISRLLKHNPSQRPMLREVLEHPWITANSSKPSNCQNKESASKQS
Experimental: Mobility Shift Assay Protocol
as §1, §2, §3, §4, §5, §6, §7, §8, §9, §10, §11, §12, §13

[9] = molecular target: T8, PKA (Homo sapiens, UniProt P17612); assay: as above; details: read-out: % Inhibition PKA
T8 construct: purchased Perkin Elmer (ProfilerPro assay kit 1)
Experimental: as §14
Mobility Shift Assay Protocol
as §1, §2, §3, §4, §5, §6
final concentration. […] The
as §7, §8, §9, §10, §11, §12, §13

[10] = molecular target: T9, FYN (Homo sapiens, UniProt P06241); assay: as above; details: read-out: % Inhibition FYN
T9 construct: purchased Perkin Elmer (ProfilerPro assay kit 1)
T9 sequence (P06241 whole entry): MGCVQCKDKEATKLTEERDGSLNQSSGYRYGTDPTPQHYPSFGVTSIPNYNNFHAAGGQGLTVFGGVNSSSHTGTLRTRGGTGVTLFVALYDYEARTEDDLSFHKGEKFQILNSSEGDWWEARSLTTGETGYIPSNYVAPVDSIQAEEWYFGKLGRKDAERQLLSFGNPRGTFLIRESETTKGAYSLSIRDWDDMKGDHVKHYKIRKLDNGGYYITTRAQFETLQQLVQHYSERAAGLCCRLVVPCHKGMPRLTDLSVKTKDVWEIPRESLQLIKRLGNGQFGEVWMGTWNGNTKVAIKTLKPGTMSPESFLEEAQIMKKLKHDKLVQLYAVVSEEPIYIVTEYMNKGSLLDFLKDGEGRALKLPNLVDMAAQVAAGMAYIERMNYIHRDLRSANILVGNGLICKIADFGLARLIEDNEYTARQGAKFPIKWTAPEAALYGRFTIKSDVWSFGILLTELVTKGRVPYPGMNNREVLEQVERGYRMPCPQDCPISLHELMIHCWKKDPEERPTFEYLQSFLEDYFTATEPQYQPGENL
Experimental: as §2, §3, §4, §5, §6, §7, §8, §9, §10, §11, §12, §13

[11] = molecular target: T10, MET (Homo sapiens, UniProt P08581); assay: as above; details: read-out: % Inhibition MET
T10 construct: purchased Perkin Elmer (ProfilerPro assay kit 1)
Experimental: as §14
Mobility Shift Assay Protocol
as §1, §2, §3, §4, §5, §6
final concentration. […] The
as §7, §8, §9, §10, §11, §12, §13

[12] = molecular target: T11, ABL (Homo sapiens, UniProt P00519); assay: as above; details: read-out: % Inhibition ABL
T11 construct: purchased Perkin Elmer ProfilerPro assay kit 1
T11 sequence (P00519 whole entry): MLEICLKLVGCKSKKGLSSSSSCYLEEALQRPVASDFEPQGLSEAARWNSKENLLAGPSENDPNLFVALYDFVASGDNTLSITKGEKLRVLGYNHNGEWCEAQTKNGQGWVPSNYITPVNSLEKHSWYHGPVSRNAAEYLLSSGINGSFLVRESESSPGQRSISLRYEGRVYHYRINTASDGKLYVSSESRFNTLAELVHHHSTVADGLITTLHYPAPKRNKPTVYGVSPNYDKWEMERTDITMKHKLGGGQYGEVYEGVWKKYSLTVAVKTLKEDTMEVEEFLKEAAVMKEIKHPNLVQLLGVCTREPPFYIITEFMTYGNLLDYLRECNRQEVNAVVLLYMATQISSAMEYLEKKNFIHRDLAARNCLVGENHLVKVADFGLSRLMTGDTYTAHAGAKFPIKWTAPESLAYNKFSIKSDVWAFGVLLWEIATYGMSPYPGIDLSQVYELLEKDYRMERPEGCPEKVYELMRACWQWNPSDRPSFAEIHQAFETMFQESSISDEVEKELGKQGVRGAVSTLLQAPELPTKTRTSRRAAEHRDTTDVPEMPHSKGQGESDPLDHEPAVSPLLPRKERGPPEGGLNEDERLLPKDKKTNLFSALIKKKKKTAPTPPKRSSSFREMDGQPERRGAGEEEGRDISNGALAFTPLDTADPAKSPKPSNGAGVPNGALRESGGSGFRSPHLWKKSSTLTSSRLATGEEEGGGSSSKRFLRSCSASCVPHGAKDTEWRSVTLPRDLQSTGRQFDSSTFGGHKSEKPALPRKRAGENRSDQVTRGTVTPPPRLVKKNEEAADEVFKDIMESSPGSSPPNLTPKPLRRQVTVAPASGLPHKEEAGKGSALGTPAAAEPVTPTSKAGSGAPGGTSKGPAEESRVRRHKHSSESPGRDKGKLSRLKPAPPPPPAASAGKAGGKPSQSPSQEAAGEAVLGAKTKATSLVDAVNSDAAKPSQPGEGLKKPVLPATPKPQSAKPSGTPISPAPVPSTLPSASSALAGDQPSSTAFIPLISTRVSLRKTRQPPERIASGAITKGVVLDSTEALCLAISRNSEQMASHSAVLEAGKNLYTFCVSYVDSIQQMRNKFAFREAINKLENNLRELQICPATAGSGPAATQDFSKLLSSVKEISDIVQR
Experimental: Mobility Shift Assay Protocol
as §1, §2, §3, §4, §5, §6, §7, §8, §9, §10, §11, §12, §13

[13] = molecular target: T12, RSK1 (Homo sapiens, UniProt Q15418); assay: as above; details: read-out: % Inhibition RSK1
T12 construct: purchased Perkin Elmer (ProfilerPro assay kit 1)
T12 sequence (Q15418 whole entry): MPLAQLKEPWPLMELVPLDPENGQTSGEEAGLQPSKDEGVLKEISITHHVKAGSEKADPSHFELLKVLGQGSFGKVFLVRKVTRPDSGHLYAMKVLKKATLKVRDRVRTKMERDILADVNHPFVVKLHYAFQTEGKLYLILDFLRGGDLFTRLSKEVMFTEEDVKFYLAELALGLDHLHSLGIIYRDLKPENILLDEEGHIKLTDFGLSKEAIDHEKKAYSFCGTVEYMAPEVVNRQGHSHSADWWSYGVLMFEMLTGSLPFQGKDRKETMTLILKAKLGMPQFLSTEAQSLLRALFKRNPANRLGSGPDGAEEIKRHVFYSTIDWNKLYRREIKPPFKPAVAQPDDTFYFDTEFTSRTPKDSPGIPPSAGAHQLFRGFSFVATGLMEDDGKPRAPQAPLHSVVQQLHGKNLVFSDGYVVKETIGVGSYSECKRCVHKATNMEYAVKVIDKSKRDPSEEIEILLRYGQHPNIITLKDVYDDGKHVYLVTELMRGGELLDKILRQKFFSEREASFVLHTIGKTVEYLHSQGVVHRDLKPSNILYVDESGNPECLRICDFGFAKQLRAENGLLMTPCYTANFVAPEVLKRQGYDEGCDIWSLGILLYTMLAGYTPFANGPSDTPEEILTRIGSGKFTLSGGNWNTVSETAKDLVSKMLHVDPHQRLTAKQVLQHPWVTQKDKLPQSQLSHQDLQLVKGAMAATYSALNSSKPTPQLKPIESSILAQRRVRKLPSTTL
Experimental: Mobility Shift Assay Protocol
as §1, §2, §3, §4, §5, §6, §7, §8, §9, §10, §11, §12, §13

[14] = molecular target: T13, MAPKAPK2 (Homo sapiens, UniProt P49137); assay: as above; details: read-out: % Inhibition MAPKAPK2
T13 construct: purchased Perkin Elmer (ProfilerPro assay kit 1)
T13 sequence (P49137 whole entry): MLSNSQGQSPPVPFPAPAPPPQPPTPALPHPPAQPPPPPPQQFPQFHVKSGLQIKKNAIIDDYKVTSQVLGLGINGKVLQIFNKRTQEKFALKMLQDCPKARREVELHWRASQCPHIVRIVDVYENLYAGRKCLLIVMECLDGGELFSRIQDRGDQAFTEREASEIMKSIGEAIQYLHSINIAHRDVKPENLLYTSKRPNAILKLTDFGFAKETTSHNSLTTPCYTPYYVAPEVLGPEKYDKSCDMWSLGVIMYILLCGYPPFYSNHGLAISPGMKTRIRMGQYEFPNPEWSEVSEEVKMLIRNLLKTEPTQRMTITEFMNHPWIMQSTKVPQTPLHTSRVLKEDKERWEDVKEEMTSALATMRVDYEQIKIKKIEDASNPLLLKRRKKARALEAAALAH
Experimental: as §2, §3, §4, §5, §6, §7, §8, §9, §10, §11, §12, §13

T2 sequence (P27361 whole entry): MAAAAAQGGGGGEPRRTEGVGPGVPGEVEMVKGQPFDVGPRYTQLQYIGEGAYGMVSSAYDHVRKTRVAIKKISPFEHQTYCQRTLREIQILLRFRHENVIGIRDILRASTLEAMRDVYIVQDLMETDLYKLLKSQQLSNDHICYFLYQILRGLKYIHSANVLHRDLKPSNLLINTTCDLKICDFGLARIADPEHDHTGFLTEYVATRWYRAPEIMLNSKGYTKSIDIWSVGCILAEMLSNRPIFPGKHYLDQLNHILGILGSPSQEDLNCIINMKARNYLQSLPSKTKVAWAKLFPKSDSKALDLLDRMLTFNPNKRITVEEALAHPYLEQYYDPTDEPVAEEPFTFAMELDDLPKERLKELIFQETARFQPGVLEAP
T1 sequence (P31749 whole entry): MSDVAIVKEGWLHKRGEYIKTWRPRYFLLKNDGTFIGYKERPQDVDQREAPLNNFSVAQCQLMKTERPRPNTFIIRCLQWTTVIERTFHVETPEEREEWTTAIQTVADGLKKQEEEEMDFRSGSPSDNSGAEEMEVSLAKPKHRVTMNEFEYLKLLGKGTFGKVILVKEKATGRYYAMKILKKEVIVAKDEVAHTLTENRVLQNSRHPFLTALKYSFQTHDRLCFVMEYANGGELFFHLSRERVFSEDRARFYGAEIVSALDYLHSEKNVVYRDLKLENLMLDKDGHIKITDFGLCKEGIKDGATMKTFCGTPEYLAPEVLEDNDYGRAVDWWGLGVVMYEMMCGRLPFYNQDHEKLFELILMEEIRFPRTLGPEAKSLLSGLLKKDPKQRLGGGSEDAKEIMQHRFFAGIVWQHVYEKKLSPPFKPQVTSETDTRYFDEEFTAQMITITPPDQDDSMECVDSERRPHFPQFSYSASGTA

SMILES	inhibition at 100 µM [1]	inhibition at 100 µM [2]	inhibition at 100 µM [3]	Ki [4]	AurB ligand efficiency (LE) [4]	inhibition at 100 µM [5]	inhibition at 100 µM [6]	inhibition at 30 µM [1]	inhibition at 30 µM [2]	inhibition at 30 µM [3]	inhibition at 30 µM [5]	inhibition at 30 µM [6]	inhibition at 30 µM [7]	inhibition at 30 µM [8]	inhibition at 30 µM [9]	inhibition at 30 µM [10]	inhibition at 30 µM [11]	inhibition at 30 µM [12]	inhibition at 30 µM [13]	inhibition at 30 µM [14]	further results
Nc1cc(-c2ccnc(NC3CC3)n2)c[nH]c1=O [Compound 8]	18%	46%	63%	12 µM	0.37	42%	0%														inhibition at 100 µM [7]: 81%; inhibition at 100 µM [8]: 87%; inhibition at 100 µM [9]: 8%; inhibition at 100 µM [10]: 51%; inhibition at 100 µM [11]: 26%; inhibition at 100 µM [12]: 43%; inhibition at 100 µM [13]: 89%; inhibition at 100 µM [14]: 28%
Cc1nc(O)c(N)cc1-c1ccncc1 [Compound 15, 3-Amino-6-methyl-5-(pyridin-4-yl)pyridin-2-one]	10%	11%	33%	25.7 µM	0.42	10%	13%														inhibition at 100 µM [7]: 8%; inhibition at 100 µM [8]: 49%; inhibition at 100 µM [9]: 0%; inhibition at 100 µM [10]: 6%; inhibition at 100 µM [11]: 14%; inhibition at 100 µM [12]: 5%; inhibition at 100 µM [13]: 17%; inhibition at 100 µM [14]: 33%
O=C(Nc1cc(-c2ccncc2)c[nH]c1=O)c1ccccc1 [Compound 16, N-(2-Oxo-5-(pyridin-4-yl)-1,2-dihydropyridin-3-yl)benzamide]				41 µM	0.27			12%	12%	79%	55%	0%	30%	59%	0%	59%	9%	55%	19%	29%	
CN1CCN(c2ccc(C(=O)Nc3cc(-c4ccncc4)c[nH]c3=O)cc2)CC1 [Compound 22]				5.5 µM	0.25			13%	0%	31%	93%	24%	46%	92%	0%	95%	24%	96%	41%	12%	
O=C(Nc1cc(-c2ccnc(NC3CC3)n2)c[nH]c1=O)c1ccccc1 [Compound 24]				3.6 µM	0.28			73%	33%	78%	86%	0%	69%	99%	75%	93%	65%	88%	98%	96%	

Source: article PMC6008489 (Bioorganic & Medicinal Chemistry, 2018)
